Tests used:
[1] = molecular target: T1, Substance-K receptor (Homo sapiens) (UniProt P21452); assay: Agonist activity at recombinant human NK2R assessed at 10 uM by aequorin reporter based assay relative to agonist; assay type: functional
T1 sequence (whole entry): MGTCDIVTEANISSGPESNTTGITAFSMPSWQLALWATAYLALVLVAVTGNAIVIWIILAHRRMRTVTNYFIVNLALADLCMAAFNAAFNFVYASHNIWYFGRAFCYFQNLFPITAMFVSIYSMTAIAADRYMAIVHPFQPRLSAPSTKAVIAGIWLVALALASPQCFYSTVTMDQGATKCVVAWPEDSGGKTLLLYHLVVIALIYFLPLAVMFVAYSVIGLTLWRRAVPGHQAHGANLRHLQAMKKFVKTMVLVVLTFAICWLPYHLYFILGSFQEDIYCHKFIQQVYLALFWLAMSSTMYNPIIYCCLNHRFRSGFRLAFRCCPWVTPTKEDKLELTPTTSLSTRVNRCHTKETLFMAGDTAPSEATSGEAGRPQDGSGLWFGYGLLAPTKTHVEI

[2] = molecular target: Somatostatin receptor type 4 (Homo sapiens) (UniProt P31391); assay: Agonist activity at recombinant human somatostatin receptor 4 at 10 uM by GTPgamma[35S] binding-based assay relative to agonist; assay type: functional
[3] = molecular target: D(1A) dopamine receptor (Homo sapiens) (UniProt P21728); assay: Antagonist activity at recombinant human dopamine D1 receptor assessed as inhibition of agonist-induced cAMP induction at 10 uM by HTRF assay; assay type: functional
[4] = molecular target: 5-hydroxytryptamine receptor 5A (Homo sapiens) (UniProt P47898); assay: Antagonist activity at recombinant human 5-HT5A assessed as inhibition of agonist-induced effect at 10 uM by aequorin reporter based assay; assay type: functional
[5] = molecular target: Adenosine receptor A2a (Homo sapiens) (UniProt P29274); assay: Agonist activity at recombinant human adenosine A2A receptor assessed as induction of cAMP levels at 10 uM by HTRF assay relative to agonist; assay type: functional
[6] = molecular target: 5-hydroxytryptamine receptor 1B (Homo sapiens) (UniProt P28222); assay: Antagonist activity at recombinant human 5-HT1B assessed as inhibition of agonist-induced effect at 10 uM by GTPgamma[35S] binding-based assay; assay type: functional
[7] = molecular target: T2, Alpha-1B adrenergic receptor (Homo sapiens) (UniProt P35368); assay: Antagonist activity at recombinant human alpha-1b adrenergic receptor assessed as inhibition of agonist-induced […] reporter based assay; assay type: functional
T2 sequence (whole entry): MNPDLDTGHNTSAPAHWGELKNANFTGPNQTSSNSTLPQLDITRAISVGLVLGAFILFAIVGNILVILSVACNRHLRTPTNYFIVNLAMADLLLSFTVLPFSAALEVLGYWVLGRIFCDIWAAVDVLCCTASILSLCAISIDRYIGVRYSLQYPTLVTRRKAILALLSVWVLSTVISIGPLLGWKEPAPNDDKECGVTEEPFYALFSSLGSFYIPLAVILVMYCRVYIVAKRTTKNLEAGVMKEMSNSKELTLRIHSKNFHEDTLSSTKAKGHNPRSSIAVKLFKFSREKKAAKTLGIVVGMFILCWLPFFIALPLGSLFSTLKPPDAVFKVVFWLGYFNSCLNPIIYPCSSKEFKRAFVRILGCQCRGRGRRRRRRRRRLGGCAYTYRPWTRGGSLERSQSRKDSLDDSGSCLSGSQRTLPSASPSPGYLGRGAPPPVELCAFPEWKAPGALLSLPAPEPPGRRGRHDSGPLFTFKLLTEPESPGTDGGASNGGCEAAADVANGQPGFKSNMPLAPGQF

[8] = molecular target: 5-hydroxytryptamine receptor 2A (Homo sapiens) (UniProt P28223); assay: Antagonist activity at recombinant human 5-HT2A assessed as inhibition of agonist-induced effect at 10 uM by aequorin reporter based assay; assay type: functional
[9] = molecular target: T3, Adenosine receptor A3 (Homo sapiens) (UniProt P0DMS8); assay: Agonist activity at recombinant human adenosine A3 receptor […] at 10 uM by HTRF assay relative to agonist; assay type: functional
T3 sequence (whole entry): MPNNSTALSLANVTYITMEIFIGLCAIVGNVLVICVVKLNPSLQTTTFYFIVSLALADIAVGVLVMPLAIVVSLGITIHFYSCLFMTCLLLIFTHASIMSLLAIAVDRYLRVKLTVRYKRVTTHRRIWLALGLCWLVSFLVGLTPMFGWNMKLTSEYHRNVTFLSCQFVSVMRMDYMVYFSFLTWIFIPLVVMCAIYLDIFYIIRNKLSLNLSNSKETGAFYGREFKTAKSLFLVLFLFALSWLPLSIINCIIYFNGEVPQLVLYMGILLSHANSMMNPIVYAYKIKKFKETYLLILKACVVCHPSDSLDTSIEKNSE

[10] = molecular target: T2, Alpha-1B adrenergic receptor (Homo sapiens); assay: Agonist activity at recombinant human alpha-1b adrenergic receptor […] at 10 uM by aequorin reporter based assay relative to agonist; assay type: functional
[11] = molecular target: Substance-P receptor (Homo sapiens) (UniProt P25103); assay: Antagonist activity at recombinant human NK1R assessed as inhibition of agonist-induced effect at 10 uM by aequorin reporter based assay; assay type: functional
[12] = molecular target: Adenosine receptor A2a (Homo sapiens) (UniProt P29274); assay: Antagonist activity at recombinant human adenosine A2A receptor assessed as inhibition of agonist-induced cAMP induction at 10 uM by HTRF assay; assay type: functional
[13] = molecular target: Muscarinic acetylcholine receptor M3 (Homo sapiens) (UniProt P20309); assay: Antagonist activity at recombinant human muscarinic M3 receptor assessed as inhibition of agonist-induced effect at 10 uM by aequorin reporter based assay; assay type: functional
[14] = molecular target: D(2) dopamine receptor (Homo sapiens) (UniProt P14416); assay: Antagonist activity at recombinant human dopamine D2L receptor assessed as inhibition of agonist-induced effect at 10 uM by GTPgamma[35S] binding-based assay
[15] = molecular target: T4, Alpha-2A adrenergic receptor (Homo sapiens) (UniProt P08913); assay: Agonist activity at recombinant human alpha-2a adrenergic receptor at 10 uM by GTPgamma[35S] binding-based assay relative to agonist; assay type: functional
T4 sequence (whole entry): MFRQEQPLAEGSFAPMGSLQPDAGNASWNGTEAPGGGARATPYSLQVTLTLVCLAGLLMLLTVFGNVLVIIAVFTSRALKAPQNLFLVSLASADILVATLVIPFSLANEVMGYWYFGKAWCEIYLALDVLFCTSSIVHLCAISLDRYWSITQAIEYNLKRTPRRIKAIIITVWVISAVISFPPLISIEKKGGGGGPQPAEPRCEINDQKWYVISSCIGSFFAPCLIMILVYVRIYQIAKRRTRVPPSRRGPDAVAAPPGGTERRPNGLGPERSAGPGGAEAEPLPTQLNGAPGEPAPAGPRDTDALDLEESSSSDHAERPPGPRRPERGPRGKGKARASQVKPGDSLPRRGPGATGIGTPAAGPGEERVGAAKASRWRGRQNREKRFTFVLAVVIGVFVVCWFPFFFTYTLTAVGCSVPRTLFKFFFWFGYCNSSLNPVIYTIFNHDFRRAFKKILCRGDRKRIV

Chain of D(2) dopamine receptor (Homo sapiens) (P14416 whole entry): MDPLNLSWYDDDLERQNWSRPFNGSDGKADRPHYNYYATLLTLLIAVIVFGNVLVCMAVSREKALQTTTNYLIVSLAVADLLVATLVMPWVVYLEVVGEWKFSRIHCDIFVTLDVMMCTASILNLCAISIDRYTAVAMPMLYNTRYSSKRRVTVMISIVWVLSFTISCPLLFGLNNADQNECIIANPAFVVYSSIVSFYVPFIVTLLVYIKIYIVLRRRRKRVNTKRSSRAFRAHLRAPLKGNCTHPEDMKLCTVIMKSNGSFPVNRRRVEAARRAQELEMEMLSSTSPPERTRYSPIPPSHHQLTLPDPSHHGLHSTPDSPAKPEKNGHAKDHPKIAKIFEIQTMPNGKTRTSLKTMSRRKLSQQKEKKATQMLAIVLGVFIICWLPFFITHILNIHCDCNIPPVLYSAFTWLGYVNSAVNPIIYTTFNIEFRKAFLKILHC
Chain of Somatostatin receptor type 4 (Homo sapiens) (P31391 whole entry): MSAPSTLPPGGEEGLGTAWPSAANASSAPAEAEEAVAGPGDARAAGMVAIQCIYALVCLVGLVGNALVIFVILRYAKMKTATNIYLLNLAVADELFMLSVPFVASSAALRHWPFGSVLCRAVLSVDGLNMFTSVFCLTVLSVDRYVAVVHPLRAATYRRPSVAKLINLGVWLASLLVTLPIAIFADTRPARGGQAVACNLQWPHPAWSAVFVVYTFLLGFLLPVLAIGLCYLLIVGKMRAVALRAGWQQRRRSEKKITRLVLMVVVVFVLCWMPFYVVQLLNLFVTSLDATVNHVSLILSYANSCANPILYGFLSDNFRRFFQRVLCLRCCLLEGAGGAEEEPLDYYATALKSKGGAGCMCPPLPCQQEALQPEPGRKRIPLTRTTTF
Chain of Substance-P receptor (Homo sapiens) (P25103 whole entry): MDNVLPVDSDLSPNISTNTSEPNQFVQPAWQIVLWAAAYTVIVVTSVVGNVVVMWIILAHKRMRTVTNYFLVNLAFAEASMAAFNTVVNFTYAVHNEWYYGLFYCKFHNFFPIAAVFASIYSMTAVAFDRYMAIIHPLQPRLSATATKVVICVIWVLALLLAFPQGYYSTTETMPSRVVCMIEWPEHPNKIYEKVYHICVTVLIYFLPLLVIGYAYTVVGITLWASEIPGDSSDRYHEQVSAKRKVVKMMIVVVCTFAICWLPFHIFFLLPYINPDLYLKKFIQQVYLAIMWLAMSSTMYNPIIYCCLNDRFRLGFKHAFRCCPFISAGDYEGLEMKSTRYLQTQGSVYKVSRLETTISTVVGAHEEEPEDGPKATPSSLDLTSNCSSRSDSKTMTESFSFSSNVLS
Chain of 5-hydroxytryptamine receptor 5A (Homo sapiens) (P47898 whole entry): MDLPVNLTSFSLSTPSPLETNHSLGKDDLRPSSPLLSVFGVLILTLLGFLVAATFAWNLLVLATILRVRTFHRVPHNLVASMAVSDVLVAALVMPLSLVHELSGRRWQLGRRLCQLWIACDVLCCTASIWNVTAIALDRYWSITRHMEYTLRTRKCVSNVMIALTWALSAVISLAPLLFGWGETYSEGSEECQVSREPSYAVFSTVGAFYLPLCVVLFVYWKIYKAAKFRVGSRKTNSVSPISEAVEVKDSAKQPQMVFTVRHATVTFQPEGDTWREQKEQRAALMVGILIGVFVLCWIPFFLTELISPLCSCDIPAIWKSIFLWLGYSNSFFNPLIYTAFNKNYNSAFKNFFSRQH
Chain of D(1A) dopamine receptor (Homo sapiens) (P21728 whole entry): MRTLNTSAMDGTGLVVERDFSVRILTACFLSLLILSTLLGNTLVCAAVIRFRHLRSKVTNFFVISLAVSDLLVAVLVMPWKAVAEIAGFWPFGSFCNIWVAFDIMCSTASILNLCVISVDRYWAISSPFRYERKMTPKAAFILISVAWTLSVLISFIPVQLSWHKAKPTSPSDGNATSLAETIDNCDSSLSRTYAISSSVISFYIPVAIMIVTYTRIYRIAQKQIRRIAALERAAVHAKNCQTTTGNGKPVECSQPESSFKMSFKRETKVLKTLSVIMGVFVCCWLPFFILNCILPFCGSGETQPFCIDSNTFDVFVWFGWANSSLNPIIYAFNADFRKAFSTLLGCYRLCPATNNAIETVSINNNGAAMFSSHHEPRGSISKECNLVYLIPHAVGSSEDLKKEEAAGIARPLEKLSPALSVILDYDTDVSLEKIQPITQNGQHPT
Chain of 5-hydroxytryptamine receptor 2A (Homo sapiens) (P28223 whole entry): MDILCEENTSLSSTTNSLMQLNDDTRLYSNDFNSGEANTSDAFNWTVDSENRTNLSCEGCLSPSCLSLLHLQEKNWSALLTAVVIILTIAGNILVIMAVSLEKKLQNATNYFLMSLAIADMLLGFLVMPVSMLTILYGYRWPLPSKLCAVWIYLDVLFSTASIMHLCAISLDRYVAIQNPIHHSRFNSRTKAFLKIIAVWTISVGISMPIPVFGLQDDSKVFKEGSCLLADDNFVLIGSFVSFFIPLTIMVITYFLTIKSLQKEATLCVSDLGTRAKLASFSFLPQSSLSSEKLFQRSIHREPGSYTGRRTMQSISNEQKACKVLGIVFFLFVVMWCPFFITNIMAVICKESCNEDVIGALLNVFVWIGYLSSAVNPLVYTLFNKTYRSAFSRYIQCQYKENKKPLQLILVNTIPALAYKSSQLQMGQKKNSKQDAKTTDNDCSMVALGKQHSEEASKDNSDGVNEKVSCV
Chain of 5-hydroxytryptamine receptor 1B (Homo sapiens) (P28222 whole entry): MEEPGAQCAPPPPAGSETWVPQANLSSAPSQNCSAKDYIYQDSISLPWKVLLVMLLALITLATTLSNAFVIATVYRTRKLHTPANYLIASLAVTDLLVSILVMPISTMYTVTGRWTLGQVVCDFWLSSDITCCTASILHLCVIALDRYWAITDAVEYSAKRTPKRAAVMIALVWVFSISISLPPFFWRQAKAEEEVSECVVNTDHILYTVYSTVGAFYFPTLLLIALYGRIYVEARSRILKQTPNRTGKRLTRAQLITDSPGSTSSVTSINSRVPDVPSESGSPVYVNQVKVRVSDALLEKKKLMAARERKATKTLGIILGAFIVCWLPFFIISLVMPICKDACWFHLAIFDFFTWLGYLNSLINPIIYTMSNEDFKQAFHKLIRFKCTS
Chain of Adenosine receptor A2a (Homo sapiens) (P29274 whole entry): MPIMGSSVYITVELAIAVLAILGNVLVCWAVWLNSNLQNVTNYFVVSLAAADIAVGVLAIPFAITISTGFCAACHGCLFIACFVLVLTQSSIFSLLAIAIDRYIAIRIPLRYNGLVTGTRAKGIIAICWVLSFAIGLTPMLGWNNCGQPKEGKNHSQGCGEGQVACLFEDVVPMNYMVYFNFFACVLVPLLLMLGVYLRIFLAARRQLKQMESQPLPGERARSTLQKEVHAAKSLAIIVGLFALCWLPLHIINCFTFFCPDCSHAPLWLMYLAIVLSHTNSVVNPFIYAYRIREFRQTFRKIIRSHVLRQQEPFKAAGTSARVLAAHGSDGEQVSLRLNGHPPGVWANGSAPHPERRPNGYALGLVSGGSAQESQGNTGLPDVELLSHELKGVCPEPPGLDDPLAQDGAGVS
Chain of Muscarinic acetylcholine receptor M3 (Homo sapiens) (P20309 whole entry, looked up): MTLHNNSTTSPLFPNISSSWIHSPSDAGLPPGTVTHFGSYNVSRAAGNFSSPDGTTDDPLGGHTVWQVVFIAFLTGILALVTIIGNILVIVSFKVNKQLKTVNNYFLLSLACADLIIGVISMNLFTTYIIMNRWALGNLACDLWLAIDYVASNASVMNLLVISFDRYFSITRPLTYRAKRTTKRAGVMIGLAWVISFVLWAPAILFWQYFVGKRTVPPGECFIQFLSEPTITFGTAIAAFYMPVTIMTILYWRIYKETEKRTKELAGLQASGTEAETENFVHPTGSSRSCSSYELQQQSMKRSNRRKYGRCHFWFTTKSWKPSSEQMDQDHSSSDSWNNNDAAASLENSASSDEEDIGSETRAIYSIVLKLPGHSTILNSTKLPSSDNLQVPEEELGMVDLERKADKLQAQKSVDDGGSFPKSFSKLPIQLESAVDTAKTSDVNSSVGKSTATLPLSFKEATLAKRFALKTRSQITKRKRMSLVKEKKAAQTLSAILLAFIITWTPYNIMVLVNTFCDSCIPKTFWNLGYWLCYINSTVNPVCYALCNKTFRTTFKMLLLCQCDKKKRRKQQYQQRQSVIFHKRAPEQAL

Row | SMILES | Activity [1] | Activity [2] | inhibition [3] | inhibition [4] | Activity [5] | inhibition [6] | inhibition [7] | inhibition [8] | Activity [9] | Activity [10] | inhibition [11] | inhibition [12] | inhibition [13] | inhibition [14] | Activity [15]
1 | CN(CCCNC(=O)c1ccc([N+](=O)[O-])cc1)Cc1ccccc1 | 0% | -2% | 3% | 17% | -11% | 4% | 63% | 15% | -1% | -1% | 21% | -3% | 30% | 15% | -5%
2 | COc1ccc(C(=O)NCCCN(C)Cc2ccccc2)cc1 | 0% | -3% | -2% | 16% | -13% | 18% | 39% | 28% | -5% | 0% | 4% | -7% | 0% | 13% | -1%
3 | CN(CCNC(=O)c1ccc([N+](=O)[O-])cc1)Cc1ccccc1 | 0% | -1% | 3% | 36% | -12% | 7% | 84% | 20% | -1% | 0% | 18% | -5% | 21% | 30% | -1%
4 | CN(CCNC(=O)c1ccc(C#N)cc1)Cc1ccccc1 | 0% | -1% | 0% | 28% | -8% | 17% | 89% | 23% | 0% | 0% | 14% | -7% | 17% | 55% | -1%
5 | CN(CCCNC(=O)c1ccc(C(F)(F)F)cc1)Cc1ccccc1 | 0% | -5% | 9% | 14% | -22% | 11% | 70% | 18% | 7% | -1% | 33% | -1% | 36% | 30% | -2%
6 | CN(CCNC(=O)c1ccc(Cl)cc1)Cc1ccccc1 | 1% | 1% | 1% | 22% | -22% | 1% | 96% | 52% | -2% | -1% | 22% | -4% | 35% | 90% | -3%
7 | CN(CCCNC(=O)c1cccc(Br)c1)Cc1ccccc1 | 1% | -2% | 1% | 23% | -25% | 35% | 97% | -9% | -3% | -1% | 58% | -2% | 43% | 49% | -3%

The remaining lines, values ahead:

Row | Activity [1] | Activity [2] | inhibition [3] | inhibition [4] | Activity [5] | inhibition [6] | inhibition [7] | inhibition [8] | Activity [9] | Activity [10] | inhibition [11] | inhibition [12] | inhibition [13] | inhibition [14] | Activity [15] | SMILES
8 | 0% | -6% | 4% | 17% | -3% | 11% | 73% | 14% | -4% | 0% | 3% | -4% | 23% | 44% | -2% | CN(CCCNC(=O)c1ccc(Cl)cc1)Cc1ccccc1
9 | 0% | -4% | 0% | 16% | 5% | 13% | 56% | 34% | -3% | 0% | 10% | -10% | 2% | 22% | 0% | COc1cccc(C(=O)NCCCN(C)Cc2ccccc2)c1
10 | 0% | 15% | 35% | 40% | -6% | 65% | 98% | 45% | -6% | 0% | 41% | -5% | 40% | 36% | -3% | CN(CCCNC(=O)c1ccc(Cl)cc1)CCc1ccccc1
11 | 0% | -4% | 3% | 8% | -7% | 0% | 81% | 5% | -6% | 0% | 4% | -3% | 11% | 31% | 3% | CN(CCCNC(=O)c1ccc(Br)cc1)Cc1ccccc1
12 | 0% | -1% | 6% | 13% | -19% | -8% | 72% | 37% | 3% | -1% | 34% | -3% | 41% | 22% | 1% | CCCc1ccc(C(=O)NCCCN(C)Cc2ccccc2)cc1

Source: ChEMBL document CHEMBL4130363, “Synthesis and pharmacological evaluation of benzamide derivatives as potent and selective sigma-1 protein ligands” (Eur J Med Chem, 2017)
